From patent US20150201661A1, “BAMBOO EXTRACTS, COMPOSITIONS AND USES THEREOF” (priority 2014, published 2015)
Marks after values point to notes of the source that are not given here.

Legend:
Format in all cases: in vivo, Pseudosciaena crocea
[1] = system: catalase (CAT); assay: CAT activity in liver of large yellow croaker; details: 5 months, feed with GBE 3.0 g/kg or astaxanthin 1.0 g/kg
Text: (§1) Yellow croaker fish (Pseudosciaena crocea) are an important marine economic fish in China. One thousand and eight hundred of large yellow croakers with the average weight of 150.06±11.35 g, were randomly selected into three groups (each group represented by three replicates of 200 large yellow croakers each). The GBE group and astaxanthin group were feed with complete formula puffed pellet feed rich in 3.0 g/kg of GBE and 1.0 g/kg of astaxanthin, respectively. Astaxanthin is an accepted dietary additive, but is quite expensive. The reference group was feed with chilled miscellaneous fish and shrimp. The breeding time was five months. Feeding was stopped 24 h after the test. Eight test large yellow croakers were randomly selected from each replicate group (that is, 24 test large yellow croakers each group). The selected fish were weighed, the livers were segmented, and the abdominal and back muscles examined after they were killed. Adequate amount of fresh back and abdominal muscle were used for sensory evaluation, the rest were sub-packaged and stored on −20° C. refrigerator for further use. The fat content of liver and fish and the superoxide dismutase (SOD) activity, catalase (CAT) activity, malondialdehyde (MDA) content, leptin content, adiponectin content of liver were detected.

[2] = system: back muscle tissue; assay: Transmission electron microscopy of back muscle of large yellow croakers; details: FIG. 4
Text: as §1

[3] = system: adiponectin; assay: Adiponectin level in the liver of large yellow croaker; details: 5 months, feed with GBE 3.0 g/kg or astaxanthin 1.0 g/kg
Text: as §1

[4] = system: malondialdehyde (MDA); assay: MDA content (lipid peroxidation) in liver of large yellow croaker; details: 5 months, feed with GBE 3.0 g/kg or astaxanthin 1.0 g/kg
Text: as §1

[5] = system: superoxide dismutase (SOD); assay: SOD activity in liver of large yellow croaker; details: 5 months, feed with GBE 3.0 g/kg or astaxanthin 1.0 g/kg
Text: as §1

[6] = system: leptin; assay: Leptin level in the liver of large yellow croaker; details: 5 months, feed with GBE 3.0 g/kg or astaxanthin 1.0 g/kg
Text: as §1

[7] = Body weight and fat content of large yellow croaker; details: 5 months, feed with GBE 3.0 g/kg or astaxanthin 1.0 g/kg
Text: as §1

**Q.** With `CC1=C(/C=C/C(C)=C/C=C/C(C)=C/C=C/C=C(C)/C=C/C=C(C)/C=C/C2=C(C)C(=O)[C@@H](O)CC2(C)C)C(C)(C)C[C@H](O)C1=O` [ASTA, astaxanthin] as the compound, how does the “CAT activity in the liver” value [1] read?
**A.** The value was 22.56 ± 3.11^a U/mg prot.

**Q.** And the “CAT/SOD ratio in the liver” value [1]?
**A.** The value was 0.13 ± 0.01^a.

**Q.** What about the “clearance of muscle bundle, order of groups” value ([2]; TEM 10000 times) of the same compound?
**A.** Its value is “reference group<GBE group<astaxanthin group”.

**Q.** And the “quantity of mitochondria, order of groups” value ([2]; TEM 12000 times)?
**A.** The value was “reference group<GBE group<astaxanthin group”.

**Q.** And the “ADIPONECTIN level in the liver” value [3]?
**A.** The value was 2.57 ± 0.33^c ug/mL.

**Q.** What about the MDA level in the liver [4] of the same compound?
**A.** The MDA level in the liver was 118 ± 9.33 nmol/mg prot.

**Q.** And the “SOD activity in the liver” value [5]?
**A.** The value was 157.35 ± 10.24^a U/mg prot.

**Q.** And the “LEPTIN level in the liver” value [6]?
**A.** Its value is 1.08 ± 0.12^b ng/mL.

**Q.** What about the “overall body weight vs reference group” value ([7]; FIG. 3) of the same compound?
**A.** The value was “no significant differences”.

**Q.** What about the “fat content of liver vs reference group” value ([7]; p<0.05) of the same compound?
**A.** The value was “significantly lower”.

**Q.** And the “fat content of muscle vs reference group” value ([7]; p<0.05)?
**A.** The value was “significantly lower”.
